Experimental data: US12268227B2, “Production of flavor concentrates by osmosis” (SYMRISE AG, priority 2017, dated 2025)
Read-outs that look alike come from different tables or passages of the source.

What was measured:
[1] = log P (n-octanol/water partition coefficient) of aroma substances; format: physicochemical
Excerpt: [formula] • wherein: • C (n-octanol) is the concentration of the aroma substance in the n-octanol phase; and • C (water) is the concentration of the aroma substance in the water phase. The log K(n-octanol/water) is a dimensionless partition coefficient which indicates the ratio of the concentration of the aroma substance in a two-phase system of n-octanol and water. It is thus a model measure of the polarity or water/fat solubility of the aroma substance. Log P is a common physical parameter and is positive for lipophilic aroma substances and negative for hydrophilic aroma substances. The W parameter is therefore defined as follows: W=log10(SWF)

[2] = Odour threshold concentration in water
Description: The OAV value is defined as a measure of the significance of a specific component in the odour of a sample, for example, a foodstuff. The OAV value is calculated by dividing the concentration of a specific substance in the food (mg/kg) by the concentration threshold value of this substance in the food (mg/kg). If the OAV>1, the concentration of the substance exceeds the odour threshold concentration and the substance then makes a sensorial contribution to the overall profile.
The sensory recovery coefficient (SWF) of an aroma substance is composed of the log P of the aroma substance and the odour threshold concentration of the aroma substance (mg/kg in water) and is defined as follows: […]

logP ([1]; read-out: logP)	logP [1]	Structure (SMILES)	Threshold ([2]; odour threshold concentration)	Threshold [2] [µg/kg in water]
1.44		CC/C=C\CCO [cis-3-hexenol]		
2.41		CCCCCC(=O)OCC [ethyl hexanoate]	5 µg/kg in water	
2.74		C=CC(C)(O)CCC=C(C)C (stereo not drawn) [linalool]	103 µg/kg in water	
3.19		CC(C)=CCC/C(C)=C/C=O [geranial]	320 µg/kg in water	
1.49		CCCC(=O)OCC [ethyl butanoate]	1 µg/kg in water	
		CCOC(C)=O [ethyl acetate]	3120 µg/kg in water	
		CCCC(=O)O [butyric acid]	1000 µg/kg in water	
		CC(=O)O [acetic acid]	180000 mg/kg in water	
1.85		CCCCCC=O [hexanal]	16 µg/kg in water	
		CCCCCCO [hexanol]	50 µg/kg in water	
		CCCO [propanol]		5700
1.4		CCC(C)C=O (stereo not drawn) [2-methylbutyraldehyde]	0.9 µg/kg in water	
0.159		CCC(=O)C(C)=O [2,3-pentanedione]	5 µg/kg in water	
0.484		CCC=O [propanal]	170 µg/kg in water	
	2.0901	CCCCC1CCC(=O)O1 (stereo not drawn) [gamma-octalactone]	24 µg/kg in water	
-0.508		CC(=O)C(C)=O [2,3-butanedione]	54 µg/kg in water	
		CCO [ethanol]	52000 mg/kg in water	

Structure (SMILES)	logP ([1]; read-out: logP)	logP [1]	Threshold ([2]; odour threshold concentration)	Threshold [2] [µg/kg in water]
CC=O [acetaldehyde]	-0.182			63
CCCCCC(=O)O [hexanoic acid]	1.81		3940 µg/kg in water	
CO [methanol]	-0.358		369828 mg/kg in water	
